Read-outs that look alike come from different tables or passages of the source.
Assays:
[1] = target: recombinant rat homomeric GluK1 (Rattus norvegicus, UniProt P22756); assay: Binding affinity at cloned homomeric GluK1 expressed in sf9 cells, [3H]-NF608
native KA receptors [2] = assay: Binding affinity at native KA receptors, [3H]-KA, rat cortical synaptosomes; details: native iGluRs; for IC50 KA: mean of at least three experiments
[3] = target: recombinant rat homomeric GluK3 (Rattus norvegicus, UniProt P42264); assay: Binding affinity at cloned homomeric GluK3 expressed in sf9 cells, [3H]-KA; details: for GluK1/K3 (GluK1/GluK3 Ki selectivity ratio): ratio of Ki values at cloned homomeric receptors
human EAAT2 = human EAAT2 (Homo sapiens, UniProt P43004); assay: [3H]-D-Asp uptake assay, EAAT2 stably expressed in HEK293 cells; type: cell-based
human EAAT1 = human EAAT1 (Homo sapiens, UniProt P43003); assay: [3H]-D-Asp uptake assay, EAAT1 stably expressed in HEK293 cells; type: cell-based
human EAAT3 = target: T1, human EAAT3 (Homo sapiens, UniProt P43005); assay: [3H]-D-Asp uptake assay, EAAT3 stably expressed in HEK293 cells; type: cell-based
T1 sequence (P43005 1-524): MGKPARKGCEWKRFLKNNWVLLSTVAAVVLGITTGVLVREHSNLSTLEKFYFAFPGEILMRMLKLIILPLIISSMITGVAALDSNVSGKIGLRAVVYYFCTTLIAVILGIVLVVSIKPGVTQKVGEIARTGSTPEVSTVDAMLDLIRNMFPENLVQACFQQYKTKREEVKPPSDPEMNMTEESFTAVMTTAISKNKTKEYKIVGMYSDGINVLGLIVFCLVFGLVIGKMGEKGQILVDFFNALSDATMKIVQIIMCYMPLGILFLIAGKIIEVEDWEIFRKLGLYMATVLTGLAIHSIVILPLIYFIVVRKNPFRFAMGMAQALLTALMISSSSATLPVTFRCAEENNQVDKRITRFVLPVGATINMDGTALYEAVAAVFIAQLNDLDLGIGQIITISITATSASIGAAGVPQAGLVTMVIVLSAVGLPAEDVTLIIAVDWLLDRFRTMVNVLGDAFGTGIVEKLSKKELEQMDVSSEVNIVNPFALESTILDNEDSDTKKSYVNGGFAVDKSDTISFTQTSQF

[4] = target: recombinant rat homomeric GluK2 (Rattus norvegicus, UniProt P42260); assay: Binding affinity at cloned homomeric GluK2 expressed in sf9 cells, [3H]-KA
native NMDA receptors [5] = details: read-out: Ki NMDA, cited from earlier work
native KA receptors [6] = details: cited from earlier work
native AMPA receptors = details: read-out: IC50 AMPA, cited from earlier work
native NMDA receptors [7] = type: binding; details: native iGluRs, rat synaptosomes
[8] = Ki GluK3, cloned homomeric receptor, mean ± SEM, at least three experiments

Chain of human EAAT1 (P43003 whole entry): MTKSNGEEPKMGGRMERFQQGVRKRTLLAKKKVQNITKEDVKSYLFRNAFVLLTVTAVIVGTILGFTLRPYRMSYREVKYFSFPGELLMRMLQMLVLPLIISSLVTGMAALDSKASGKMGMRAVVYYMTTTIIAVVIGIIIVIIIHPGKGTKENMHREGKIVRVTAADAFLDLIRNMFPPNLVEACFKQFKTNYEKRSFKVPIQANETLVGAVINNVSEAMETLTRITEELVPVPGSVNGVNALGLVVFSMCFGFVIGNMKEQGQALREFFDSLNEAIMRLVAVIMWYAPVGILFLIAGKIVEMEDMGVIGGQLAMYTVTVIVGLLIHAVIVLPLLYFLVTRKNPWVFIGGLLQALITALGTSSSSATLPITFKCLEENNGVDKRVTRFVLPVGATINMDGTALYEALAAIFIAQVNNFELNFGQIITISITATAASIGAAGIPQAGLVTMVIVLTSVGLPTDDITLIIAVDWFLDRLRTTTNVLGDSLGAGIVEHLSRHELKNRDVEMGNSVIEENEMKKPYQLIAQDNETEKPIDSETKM
Chain of recombinant rat homomeric GluK3 (P42264 32-919): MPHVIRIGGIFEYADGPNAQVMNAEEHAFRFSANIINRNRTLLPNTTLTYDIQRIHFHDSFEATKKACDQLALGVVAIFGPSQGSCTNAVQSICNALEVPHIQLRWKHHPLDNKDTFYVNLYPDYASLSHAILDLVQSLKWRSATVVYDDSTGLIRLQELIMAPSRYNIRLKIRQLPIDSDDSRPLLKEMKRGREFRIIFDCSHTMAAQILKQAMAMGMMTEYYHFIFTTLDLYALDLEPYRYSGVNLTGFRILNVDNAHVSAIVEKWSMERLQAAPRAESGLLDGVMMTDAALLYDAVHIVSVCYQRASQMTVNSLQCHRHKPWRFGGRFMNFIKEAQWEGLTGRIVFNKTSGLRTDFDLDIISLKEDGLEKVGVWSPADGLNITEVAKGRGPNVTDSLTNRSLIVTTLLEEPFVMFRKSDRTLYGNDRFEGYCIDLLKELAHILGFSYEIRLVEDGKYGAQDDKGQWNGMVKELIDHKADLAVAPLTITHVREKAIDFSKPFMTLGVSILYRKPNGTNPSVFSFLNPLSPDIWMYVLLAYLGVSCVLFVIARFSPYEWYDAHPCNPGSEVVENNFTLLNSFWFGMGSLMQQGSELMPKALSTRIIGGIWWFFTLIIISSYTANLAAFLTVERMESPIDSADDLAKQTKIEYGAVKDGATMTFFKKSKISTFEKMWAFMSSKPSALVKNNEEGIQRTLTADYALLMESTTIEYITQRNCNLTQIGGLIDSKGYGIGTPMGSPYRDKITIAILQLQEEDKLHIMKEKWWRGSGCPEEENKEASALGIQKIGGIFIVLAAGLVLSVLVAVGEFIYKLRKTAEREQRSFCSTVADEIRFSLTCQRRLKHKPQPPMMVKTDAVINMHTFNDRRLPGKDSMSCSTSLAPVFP
Chain of recombinant rat homomeric GluK2 (P42260 32-908): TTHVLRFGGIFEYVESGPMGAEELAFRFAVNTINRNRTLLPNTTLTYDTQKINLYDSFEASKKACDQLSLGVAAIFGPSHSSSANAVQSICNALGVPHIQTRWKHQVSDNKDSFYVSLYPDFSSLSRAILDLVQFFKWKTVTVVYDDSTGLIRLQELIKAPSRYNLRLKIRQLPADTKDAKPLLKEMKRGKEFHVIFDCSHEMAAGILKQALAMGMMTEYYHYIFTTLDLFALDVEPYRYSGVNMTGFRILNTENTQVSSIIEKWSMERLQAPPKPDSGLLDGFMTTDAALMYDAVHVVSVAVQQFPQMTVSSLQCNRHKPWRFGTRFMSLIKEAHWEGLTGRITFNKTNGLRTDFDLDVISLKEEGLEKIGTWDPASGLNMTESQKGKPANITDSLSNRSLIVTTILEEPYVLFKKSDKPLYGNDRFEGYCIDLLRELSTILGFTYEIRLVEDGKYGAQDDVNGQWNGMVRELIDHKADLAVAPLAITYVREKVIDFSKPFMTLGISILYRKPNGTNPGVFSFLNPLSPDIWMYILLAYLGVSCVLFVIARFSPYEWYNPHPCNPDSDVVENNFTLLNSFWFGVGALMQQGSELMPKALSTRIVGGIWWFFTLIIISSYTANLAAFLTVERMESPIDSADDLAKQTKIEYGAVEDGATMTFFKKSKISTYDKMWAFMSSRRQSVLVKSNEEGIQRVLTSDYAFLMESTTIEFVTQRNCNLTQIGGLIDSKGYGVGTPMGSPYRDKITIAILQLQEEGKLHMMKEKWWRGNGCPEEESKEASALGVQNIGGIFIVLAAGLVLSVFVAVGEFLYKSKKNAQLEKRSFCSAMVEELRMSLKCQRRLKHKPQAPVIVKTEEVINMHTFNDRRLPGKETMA
Chain of human EAAT2 (P43004 whole entry): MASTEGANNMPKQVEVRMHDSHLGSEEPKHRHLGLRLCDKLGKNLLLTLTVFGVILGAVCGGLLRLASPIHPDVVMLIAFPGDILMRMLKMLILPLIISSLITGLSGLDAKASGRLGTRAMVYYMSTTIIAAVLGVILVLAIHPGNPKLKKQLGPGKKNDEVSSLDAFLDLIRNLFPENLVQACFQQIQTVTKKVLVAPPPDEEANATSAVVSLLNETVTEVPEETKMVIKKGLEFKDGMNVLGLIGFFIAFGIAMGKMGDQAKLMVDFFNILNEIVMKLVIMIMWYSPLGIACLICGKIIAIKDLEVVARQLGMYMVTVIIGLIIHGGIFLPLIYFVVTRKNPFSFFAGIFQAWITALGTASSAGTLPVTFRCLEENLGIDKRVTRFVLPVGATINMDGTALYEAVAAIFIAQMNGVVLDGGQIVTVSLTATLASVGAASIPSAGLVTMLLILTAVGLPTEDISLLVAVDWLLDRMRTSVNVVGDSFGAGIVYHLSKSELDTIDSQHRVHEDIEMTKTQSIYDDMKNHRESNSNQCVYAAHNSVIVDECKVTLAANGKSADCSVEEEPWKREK
Chain of recombinant rat homomeric GluK1 (P22756 31-949): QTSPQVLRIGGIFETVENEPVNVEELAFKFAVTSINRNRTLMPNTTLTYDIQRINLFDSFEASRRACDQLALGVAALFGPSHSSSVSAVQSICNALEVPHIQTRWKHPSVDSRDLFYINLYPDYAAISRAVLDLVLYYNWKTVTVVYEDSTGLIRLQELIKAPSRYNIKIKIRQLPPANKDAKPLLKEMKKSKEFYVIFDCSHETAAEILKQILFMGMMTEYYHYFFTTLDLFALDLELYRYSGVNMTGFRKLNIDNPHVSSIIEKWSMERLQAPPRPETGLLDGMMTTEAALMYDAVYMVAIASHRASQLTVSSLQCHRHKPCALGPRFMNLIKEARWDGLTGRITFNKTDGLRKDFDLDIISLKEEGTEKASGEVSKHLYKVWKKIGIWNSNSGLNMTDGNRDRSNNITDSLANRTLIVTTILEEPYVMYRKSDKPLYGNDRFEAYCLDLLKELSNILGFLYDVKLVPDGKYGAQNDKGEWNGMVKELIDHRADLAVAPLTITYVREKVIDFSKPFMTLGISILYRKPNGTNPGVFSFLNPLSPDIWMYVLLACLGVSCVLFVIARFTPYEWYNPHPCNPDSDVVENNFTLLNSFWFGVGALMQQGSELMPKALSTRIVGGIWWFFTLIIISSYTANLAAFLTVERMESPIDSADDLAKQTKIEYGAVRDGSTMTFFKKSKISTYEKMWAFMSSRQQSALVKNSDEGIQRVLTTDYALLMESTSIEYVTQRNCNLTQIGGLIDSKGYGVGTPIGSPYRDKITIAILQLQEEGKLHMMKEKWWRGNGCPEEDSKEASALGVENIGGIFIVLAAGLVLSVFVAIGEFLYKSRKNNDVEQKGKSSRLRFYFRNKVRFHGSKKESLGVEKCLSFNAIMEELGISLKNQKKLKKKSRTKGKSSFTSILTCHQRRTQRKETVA

With `Cl.O=C(O)C(CCCO)[C@@H]1CCN[C@H]1C(=O)O` (relative stereo) [3o, trans-3-(1-Carboxy-4-hydroxybutyl)pyrrolidine-2-carboxylic Acid Hydrochloride] the Ki [1] was > 100 µM, the “IC50 KA” value (native KA receptors [2]) was >100 µM and the Ki [3, 8] was > 100 µM. For the same compound, the IC50 (human EAAT2) was > 300 µM, the IC50 (human EAAT1; IC50 EAAT1) was > 300 µM and the IC50 (human EAAT3) was > 300 µM. The Ki ([4]; Ki GluK2) was > 100 µM.

In the case of `Cl.O=C(O)C[C@H]1CCN[C@@H]1C(=O)O` [3a, (2S,3R)-3-(Carboxymethyl)pyrrolidine-2-carboxylic Acid Hydrochloride], the Ki (native NMDA receptors [5]; native receptors, ref [67]) is listed as 0.5 µM, the “IC50 KA” value (native KA receptors [6]; native receptors, ref [67]) is listed as 1.6 µM and the “GluK1/K3 (GluK1/GluK3 Ki selectivity ratio)” value [3] is listed as 6. The IC50 (human EAAT2; read-out: IC50 EAAT2, HEK293 cells, [3H]-D-Asp uptake) was > 300 µM, the IC50 (human EAAT1; read-out: IC50 EAAT1, HEK293 cells, [3H]-D-Asp uptake) was > 300 µM and the IC50 (human EAAT3; read-out: IC50 EAAT3, HEK293 cells, [3H]-D-Asp uptake) was > 300 µM. The IC50 (native AMPA receptors; native receptors, ref [67]) was 106 µM.

In the case of `CC[C@H](C(=O)O)[C@H]1CCN[C@@H]1C(=O)O.Cl` [3c-s1, (2S,3R)-3-((S)-1-Carboxypropyl)pyrrolidine-2-carboxylic Acid Hydrochloride], the Ki [1] is reported as 18 ± 3.8 µM, the “IC50 KA” value (native KA receptors [2]) is reported as >100 µM and the Ki [3] is reported as 11 ± 2.4 µM. The “GluK1/K3 (GluK1/GluK3 Ki selectivity ratio)” value [3] was 2, the IC50 (human EAAT2) was ~30 µM and the IC50 (human EAAT1) was ~100 µM. The “pKi NMDA (mean ± SEM, in brackets)” value (native NMDA receptors [7]) was 4.88 ± 0.02, the IC50 (human EAAT3) was ~50 µM and the Ki [4] was > 100 µM.

With `CC[C@@H](C(=O)O)[C@H]1CCN[C@@H]1C(=O)O.Cl` [3c-s2, (2S,3R)-3-((R)-1-Carboxypropyl)pyrrolidine-2-carboxylic Acid Hydrochloride] the Ki [1] was 41 ± 14 µM, the “IC50 KA” value (native KA receptors [2]) was >100 µM and the Ki [3] was 6.3 ± 1.3 µM. For the same compound, the “GluK1/K3 (GluK1/GluK3 Ki selectivity ratio)” value [3] was 7, the IC50 (human EAAT2) was > 300 µM and the IC50 (human EAAT1) was > 300 µM. The IC50 (human EAAT3) was > 300 µM and the Ki [4] was 70 ± 14 µM.

For `Cl.O=C(O)[C@H]1NCC[C@@H]1[C@@H](C(=O)O)c1ccccc1` [3d-s1, (2S,3R)-3-((R)-Carboxy(phenyl)methyl)pyrrolidine-2-carboxylic Acid Hydrochloride], the Ki [1] was > 100 µM, the “IC50 KA” value (native KA receptors [2]) was >100 µM and the Ki ([3]; Ki GluK3) was > 100 µM. For the same compound, the IC50 (human EAAT2) was ~50 µM, the IC50 (human EAAT1; IC50 EAAT1) was > 300 µM and the IC50 (human EAAT3) was > 300 µM. The Ki ([4]; Ki GluK2) was > 100 µM.

In the case of `Cl.O=C(O)[C@H]1NCC[C@@H]1[C@H](C(=O)O)c1ccccc1` [3d-s2, (2S,3R)-3-((S)-Carboxy(phenyl)methyl)pyrrolidine-2-carboxylic Acid Hydrochloride], the Ki [1] is reported as > 100 µM, the “IC50 KA” value (native KA receptors [2]) is reported as >100 µM and the Ki ([3]; Ki GluK3) is reported as > 100 µM. The IC50 (human EAAT2) was > 300 µM, the IC50 (human EAAT1; IC50 EAAT1) was > 300 µM and the IC50 (human EAAT3) was > 300 µM. For the same compound, the Ki ([4]; Ki GluK2) was > 100 µM.

In the case of `Cl.O=C(O)C(Cc1c[nH]nn1)[C@@H]1CCN[C@H]1C(=O)O` (stereo partly drawn) [3p-d1, trans-3-(1-Carboxy-2-(1H-1,2,3-triazol-4-yl)ethyl)pyrrolidine-2-carboxylic Acid Hydrochloride], the Ki [1] is reported as ~100 µM, the “IC50 KA” value (native KA receptors [2]) is reported as >100 µM and the Ki [3, 8] is reported as 6.6 ± 0.09 µM. For the same compound, the IC50 (human EAAT2) was > 300 µM, the IC50 (human EAAT1; IC50 EAAT1) was > 300 µM and the IC50 (human EAAT3) was > 300 µM. The Ki ([4]; Ki GluK2) was > 100 µM.

For `Cl.O=C(O)C(Cc1c[nH]nn1)[C@@H]1CCN[C@H]1C(=O)O` (stereo partly drawn) [3p-d2, trans-3-(1-Carboxy-2-(1H-1,2,3-triazol-4-yl)ethyl)pyrrolidine-2-carboxylic Acid Hydrochloride], the “pIC50 KA (mean ± SEM, in brackets)” value (native KA receptors [2]) was 4.24 ± 0.01, the “IC50 KA” value (native KA receptors [2]) was 58 µM and the Ki [3, 8] was 2.7 ± 0.32 µM. For the same compound, the “pKi NMDA (mean ± SEM, in brackets)” value (native NMDA receptors [7]) was 4.30 ± 0.03 and the Ki ([4]; Ki GluK2) was 43 ± 5.2 µM.

In the case of `Cc1onc(O)c1CC(N)C(=O)O` (stereo not drawn) [AMPA, α-amino-3-hydroxy-5-methyl-4-isoxazolepropionic acid, reference compound], the GluK1/GluK3 [3] is reported as 0.03 and the GluK2/GluK3 [3] is reported as >23.

In the case of `CN[C@H](CC(=O)O)C(=O)O` [NMDA, N-methyl-D-aspartate, reference compound], the Ki (native NMDA receptors [5]) is given as 35 µM, the “IC50 KA” value (native KA receptors [6]) is given as >100 µM and the IC50 (native AMPA receptors) is given as > 100 µM.

— publication PMC6597265 (ACS chemical neuroscience, 2019)
